Results: patent US20180185302A1, “METHODS FOR DOWNREGULATING APOBEC3B” (Regents of the University of Minnesota, priority 2015, published 2018)
Entries after “also recorded” stand apart in the source; their conditions may differ. Residues, ends and D or L forms follow the SMILES beside them. *: point of attachment. Cbz = O=C(OCc1ccccc1)*

What was measured:
MCF-7 xenograft tumor = test: MCF-7 xenograft model for tamoxifen resistance; assay type: in vivo, mice
From the text: Human cancer cell lines, such as those listed above, and many others, upon engraftment into mice (e.g., subcutaneously, intraperotoneally, or otherwise), provide model systems for human tumor evolution, heterogeneity, and drug resistance. For instance, the estrogen-receptor positive breast cancer cell line MCF7L is a model for endocrine therapy and resistance.
The MCF-7 system may be adapted for evaluating APOBEC3 mutagenesis and drug resistance by creating derivative lines expressing low APOBEC3B (e.g., shRNA transduced) and high APOBEC3B (empty vector transduced) using lentivirus transduction followed by selection with 1 μg/ml puromycin for one week (Burns et al., 2013, Nature 494:366-370) and determine whether endogenous APOBEC3B contributes to the development of tamoxifen resistance. Five-million engineered cells are injected subcutaneously (xenografted) into athymic/ovariectomized nude-Foxnlnu (4-5 weeks old, The Jackson Laboratory, Bar Harbor, Me.). Each animal's drinking water is supplemented with 1 μM estradiol to provide continuous hormonal stimulation. The xenografted cells form large tumors within 150 days post-engraftment and depleting endogenous APOBEC3B causes a modest delay in tumor growth (dark square versus dark circle symbols in FIG. 8).

APOBEC3B [1] = test: inhibitor pretreatment before PMA-induced APOBEC3B upregulation in MCF10A cells (RT-qPCR); assay type: cell-based, human; conditions: for suppression of PMA-induced APOBEC3B mRNA induction: 30-minute pretreatment with inhibitor, then PMA 25 ng/mL six hours
Procedure: PMA is a well-known agonist of PKC, but it also affects other cellular processes. To determine whether APOBEC3B induction by PMA occurs through PKC signal transduction or an alternative mechanism, we leveraged a panel of existing PKC inhibitors that each vary with respect to class selectivity. MCF10A cells were pre-treated for 30 minutes with varying concentrations of the pan-PKC inhibitor Gö6983 (Gschwendt et al., FEBS Lett. 392:77-80, 1996) and then treated for six hours with PMA (25 ng/mL). […] As additional controls, MCF10A cells were pretreated in parallel with the phosphoinositol 3 kinase (PI3K) inhibitor, LY294002, and the mitogen-activated protein kinase kinase (MEK) inhibitor, U0126, prior to PMA induction (FIGS. 2B and 2C).
(§1) For induction experiments, 2.5×10^5 cells were plated in a 6-well plate 1 day prior to drug treatment. PMA was then added to the media and incubated at 37° C. with 5% CO2 for six hours unless otherwise indicated. Cells were harvested, RNA was extracted, and RT-qPCR was performed as previously reported (Refsland et al. 2010, Nucleic Acids Res 38:4274-4284). For experiments utilizing inhibitors, cells were pretreated with inhibitors 30 minutes prior to PMA induction (25 ng/mL). PMA (Thermo Fisher Scientific, Inc., Waltham, Mass.), cyclohexamide (Acros Organics, Thermo Fisher Scientific, Inc., Waltham, Mass.), Gö6983 (Cayman Chemical co., Ann Arbor, Mich.), LY294002 (EMD Chemicals, Merck KGaA, Darmstadt, Germany), U0126 (EMD Chemicals, Merck KGaA, Darmstadt, Germany), AEB071 (Medchemexpress, Monmouth Junction, N.J.), Gö6976 (Enzo Life Sciences, Inc., Farmingdale, N.Y.), BAY 11-7082 (R&D Systems, INc., Minneapolis, Minn.), and MG132 (Thermo Fisher Scientific, Inc., Waltham, Mass.) were stored as recommended. NIKi/Compound 31 was synthesized as described (Li et al., 2013, Bioorganic & Medicinal Chemistry Letters 23:1238-1244).

MCF10A cells = test: morphology and viability of MCF10A cells under inhibitor; assay type: cell-based, human; conditions: low concentrations of Gö6983 (5 μM range), data not shown
Procedure: PMA is a well-known agonist of PKC, but it also affects other cellular processes. To determine whether APOBEC3B induction by PMA occurs through PKC signal transduction or an alternative mechanism, we leveraged a panel of existing PKC inhibitors that each vary with respect to class selectivity. MCF10A cells were pre-treated for 30 minutes with varying concentrations of the pan-PKC inhibitor Gö6983 (Gschwendt et al., FEBS Lett. 392:77-80, 1996) and then treated for six hours with PMA (25 ng/mL). […] APOBEC3B was suppressed to background levels with 5 μM Gö6983, as well as higher concentrations (FIG. 2A). […] As additional controls, MCF10A cells were pretreated in parallel with the phosphoinositol 3 kinase (PI3K) inhibitor, LY294002, and the mitogen-activated protein kinase kinase (MEK) inhibitor, U0126, prior to PMA induction (FIGS. 2B and 2C).

TNFα = TNFα mRNA expression in PMA-treated MCF10A cells (RT-qPCR); assay type: cell-based, human; conditions: titration of inhibitor, compared with APOBEC3B inhibition
Procedure: FIG. 3. Non-canonical NFκB signaling is responsible for APOBEC3B upregulation by PMA. […] MCF10A cells were treated with PMA following a 30-minute pretreatment with the indicated concentrations of each inhibitor. APOBEC3B mRNA expression is reported as the mean of three independent RT-qPCR reactions normalized to TBP (error bars report SD from triplicate assays). (C) Histogram depicting NFκB subunit mRNA levels in MCF10A cells treated with PMA or vehicle control. Expression was determined by RNA-seq and is reported as FKPM and normalized to TBP. […] MCF10A cells were treated with PMA following treatment with varying concentrations of TPCA-1. TNFα (light) and APOBEC3B (dark) mRNA levels are reported as the mean of three independent RT-qPCR reactions normalized to TBP (error bars report SD from triplicate assays). The dotted lines denote previously reported in vitro IC50 values for IKKα and IKKβ inhibition by TPCA-1 (Podolin et al., 2005, J Pharmacol Exp Ther. 312:373-381). (E) Histogram showing the kinetics of NFKBIA upregulation PMA. MCF10A cells were treated with PMA for the indicated times and mRNA values were quantified as in FIG. 3A. […]
Canonical signaling is known to require IKKβ, whereas non-canonical NFκB signaling is strictly dependent on IKKα-catalyzed phosphorylation of p100. […] As an additional control, TNFα, which is regulated by the canonical pathway, was analyzed.

[2] = test system: IKKβ (canonical) over IKKα (non-canonical); conditions: reported in vitro IC50 values (Podolin et al., 2005); cited from earlier work
APOBEC3B [3] = test: PMA induction of APOBEC3B mRNA in MCF10A cells (RT-qPCR); assay type: cell-based, human; conditions: 10 μg/mL cyclohexamide with PMA
Procedure: A panel of immortalized normal human epithelial cells lines and breast cancer cell lines was treated with PMA or equal amounts of DMSO as a negative control, and previously validated reverse transcription quantitative PCR (RT-qPCR) assays were used to measure mRNA levels of all eleven human APOBEC family members. APOBEC3B mRNA was induced specifically by PMA treatment of several lines including the immortalized normal breast epithelial cell line MCF10A (FIG. 1A and FIG. 6). Under standard cell culture conditions, MCF10A expresses low levels of APOBEC3B and APOBEC3F, even lower levels of APOBEC3G and APOBEC3H, high levels of APOBEC3C, and undetectable levels of all other APOBEC family members.
APOBEC3B was induced with as little as 1 ng/mL PMA, and its induction was dose responsive and near maximal at 25 ng/mL PMA (FIG. 1B, histogram). APOBEC3B mRNA levels correlated with a rise in steady-state protein levels as measured by immunoblotting with a rabbit anti-APOBEC3B monoclonal antibody (described in U.S. Provisional Patent Application No. 62/186,109. filed Jun. 29, 2015) and with enzymatic activity as measured by a gel-based single-stranded DNA cytosine deamination assay (FIG. 1B). […] APOBEC3B protein and activity levels lagged shortly behind mRNA levels and persisted through the duration of the time course (FIG. 1C, immunoblot and polyacrylamide gel). APOBEC3B upregulation may be a direct result of signal transduction as the kinetics of upregulation were not affected by simultaneously treating cells with the protein translation inhibitor cyclohexamide (FIG. 1D).
as §1

In the case of `CC/C(=C(\c1ccccc1)c1ccc(OCCN(C)C)cc1)c1ccccc1` [tamoxifen], the “tumor growth of MCF-7 derivative lines” value (MCF-7 xenograft tumor; 500 μg 5 days/week subcutaneous injection, APOBEC3B high and low lines, mice) is reported as “arrested the growth of both derivative lines for several months”, the “development of resistance, cells expressing high levels of APOBEC3B” value (MCF-7 xenograft tumor; 500 μg 5 days/week subcutaneous, year-long experiment) is reported as “invariably developed resistance” and the “development of resistance, APOBEC3B low cell masses” value (MCF-7 xenograft tumor; 500 μg 5 days/week subcutaneous, year-long experiment, n=5 animals/condition) is reported as “only one of the APOBEC3B low cell masses became resistant”.

In the case of `COc1ccc2c(c1)c(C1=C(c3c[nH]c4ccccc34)C(=O)NC1=O)cn2CCCN(C)C` [Gö6983], the “suppression of PMA-induced APOBEC3B mRNA induction” value (from here on “suppression”) (APOBEC3B [1]) is reported as “inhibited; also recorded: dose responsive suppression”, the “concentration that suppressed APOBEC3B to background levels” value (APOBEC3B [1]; 30-minute pretreatment, PMA 25 ng/mL six hours) is reported as 5 µM and the “morphological defects or viability issues” value (MCF10A cells) is reported as “No morphological defects or viability issues”.

In the case of `NC(=O)Nc1sc(-c2ccc(F)cc2)cc1C(N)=O` [TPCA-1], the “suppression” value (APOBEC3B [1]) is given as “near the IC50 for IKKα, not IKKβ; also recorded: inhibited closer to the reported IC50 of IKKα”, the “inhibition of TNFα expression” value (TNFα) is given as “inhibited by much lower concentrations” and the “selectivity for IKKβ (canonical) over IKKα (non-canonical)” value [2] is given as 22 fold.

With `Cn1c2ccccc2c2c3c(c4c5ccccc5n(CCC#N)c4c21)CNC3=O` [Gö6976] the “suppression” value (APOBEC3B [1]) was “inhibited”.

With `C[C@@H]1C[C@@H]([C@H](O)CC2CC(=O)NC(=O)C2)C(=O)[C@@H](C)C1` [cyclohexamide] the “effect on kinetics of PMA-induced APOBEC3B upregulation” value (APOBEC3B [3]) was “not affected”.

With `CN(C)CCCn1cc(C2=C(c3c[nH]c4ccccc34)C(=O)NC2=O)c2ccccc21` [BIM-1, bisindolylmaleimide-1] the “suppression” value (APOBEC3B [1]) was “inhibited; also recorded: nearly identical dose dependent suppression”.

In the case of `CC(C)C[C@@H](C=O)NC(=O)[C@H](CC(C)C)NC(=O)[C@H](CC(C)C)NC(=O)OCc1ccccc1` [MG132] (Cbz-Leu-Leu-Leu-aldehyde), the “suppression” value (APOBEC3B [1]) is reported as “dose responsive inhibition; also recorded: decreased in a dose dependent manner”.

In the case of `Cc1ccc(S(=O)(=O)/C=C/C#N)cc1` [BAY 11-7082], the “suppression” value (APOBEC3B [1]) is reported as “dose responsive inhibition; also recorded: strong dose-responsive drops”.

In the case of `N#CC(=C(/N)Sc1ccccc1N)/C(C#N)=C(\N)Sc1ccccc1N` [U0126], the “suppression” value (APOBEC3B [1]) is reported as “not and no suppression”.
